Laboratory results from US20230284616A1, “FUNGICIDAL COMPOSITIONS” (SYNGENTA CROP PROTECTION AG, priority 2020, published 2023).
Like-named read-outs stand apart in the source and are kept apart here. Numbered stars: 1 amine (or outer) side, 2 acyl side, 3 side chain; on linkers, the order of the positions; unused ones are H or OH. Square brackets hold non-standard residues; d marks the D form. Peptide text beside a SMILES is read from it. ξ: configuration not given here. ξNMeVal(3-OH) = CNC(C(=O)O)C(C)(C)O; NMeF = CN[CH](Cc1ccccc1)C(=O)O; X1 = CCC(C)C(O[*:1])C(=O)[*:2]; NMeV = CN[CH](C(=O)O)C(C)C

Tests used:
Botrytis cinerea = experiment: Liquid culture test in well plates, Botrytis cinerea (gray mould), Example 1-1; type: cell-based; conditions: Cyprodinil 0.005 ppm alone, growth inhibition, photometric, 72 hours, read-out: (B) inhibition (%)
Description: (§1) Mycelia fragments or conidia suspensions of a fungus, prepared either freshly from liquid cultures of the fungus or from cryogenic storage, are directly mixed into nutrient broth. DMSO solutions of the test compound (max. 10 mg/mL) is diluted with 0.025% Tween20 by factor 50 and 10 µL of this solution is pipetted into a microtiter plate (96-well format). […] The test plates are incubated in the dark at 24° C. and 96% relative humidity (rh). The inhibition of fungal growth is determined photometrically and visually after 3 - 7 days, depending on the pathosystem, and percent antifungal activity relative to the untreated check is calculated.
Conidia of the fungus from cryogenic storage were directly mixed into nutrient broth (PDB potato dextrose broth). After placing a DMSO solution of the test compositions into a microtiter plate (96-well format), the nutrient broth containing the fungal spores was added.

Alternaria solani = experiment: Liquid culture test in well plates, Alternaria solani (early blight of tomato/potato), Example 1-2; type: cell-based
Description: as §1
Conidia of the fungus from cryogenic storage were directly mixed into nutrient broth (PDB potato dextrose broth). After placing a DMSO solution of the test compositions into a microtiter plate (96-well format) the nutrient broth containing the fungal spores was added.

[1] = 48 h, read-out: (A) inhibition (%)

`Cc1cc(C2CC2)nc(Nc2ccccc2)n1` [Cyprodinil, cyprodinil, reference compound] was tested, and the inhibition at 0.005 ppm (Botrytis cinerea) was 34% and the inhibition at 0.04 ppm (Alternaria solani; Cyprodinil 0.04 ppm alone, 48 hours, read-out: (B) inhibition (%)) was 35%.
Work on `CCC(C)C1NC(=O)C2CCCN2C(=O)C(Cc2ccccc2)N(C)C(=O)C(Cc2ccccc2)NC(=O)C(C(C)C)N(C)C(=O)C(C(C)CC)OC(=O)C(C(C)(C)O)N(C)C(=O)C(CC(C)C)NC(=O)C(C(C)C)N(C)C1=O` (centres unmarked) [Aureobasidin A] (cyclo([ξNMeVal(3-OH)][X1][NMeV]F[NMeF]PI[NMeV]L); configuration not given here) yielded an inhibition at 0.01 ppm (Alternaria solani; [1]) of 24%, an inhibition at 0.02 ppm (Alternaria solani; [1]) of 31% and an inhibition at 0.04 ppm (Alternaria solani; [1]) of 43%.
